Data as given in paper PMC13266984 (Journal of medicinal chemistry, 2026).

Key:
OE19 (3A1) = target: T1, OE19 (3A1) (Homo sapiens, UniProt P30838); experiment: Cellular ALDEFLUOR assay in OE19 cells (preferential ALDH3A1 expression)
T1 sequence (P30838 1-453): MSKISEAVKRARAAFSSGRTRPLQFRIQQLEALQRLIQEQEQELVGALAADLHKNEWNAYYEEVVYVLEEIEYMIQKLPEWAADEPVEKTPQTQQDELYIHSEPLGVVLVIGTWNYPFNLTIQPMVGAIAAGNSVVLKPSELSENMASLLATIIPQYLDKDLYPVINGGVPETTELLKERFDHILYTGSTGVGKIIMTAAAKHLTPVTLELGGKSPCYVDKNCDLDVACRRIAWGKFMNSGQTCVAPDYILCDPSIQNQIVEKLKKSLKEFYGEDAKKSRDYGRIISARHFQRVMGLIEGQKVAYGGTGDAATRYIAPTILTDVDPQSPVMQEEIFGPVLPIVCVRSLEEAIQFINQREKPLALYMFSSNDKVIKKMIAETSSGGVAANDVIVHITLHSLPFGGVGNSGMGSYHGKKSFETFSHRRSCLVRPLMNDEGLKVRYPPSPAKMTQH

Human ALDH3A1 = target: T2, Human ALDH3A1 (Homo sapiens, UniProt P30838); experiment: ALDH3A1 biochemical assay (benzaldehyde/NADP+, diaphorase-resazurin readout, 1,536-well)
T2 sequence (P30838 1-453): T1 sequence (P30838 1-453)

[1] = Table S5, biochemical curve class
[2] = Table S4, biochemical curve class

SMILES | AC50 (OE19 (3A1)) | Cell_Efficacy (OE19 (3A1); Table S5, OE19 cells) | Cell_CC-v2 (OE19 (3A1); Table S5, cellular curve class) | Efficacy (Human ALDH3A1; Table S5, biochemical) | CC-v2 (Human ALDH3A1; [1]) | Cell_Efficacy (OE19 (3A1); Table S4, OE19 cells) | Cell_CC-v2 (OE19 (3A1); Table S4, cellular curve class) | AC50 (Human ALDH3A1) | Efficacy (Human ALDH3A1; Table S4, biochemical) | CC-v2 (Human ALDH3A1; [2])
O=C(Nc1ccncc1)c1ccc(CNC(=O)c2csc(N3CCN(c4cccc(C(F)(F)F)c4)CC3)n2)cc1 [NCGC01396478-01] | 6310 nM | -114.29 | -2.1 | -22.34 | 4 |  |  |  |  | 
Cc1cccc(CNC(=O)c2csc(N3CCN(c4cc(Cl)c(Cl)c(Cl)c4)CC3)n2)c1 [NCGC01211545-01] | 390 nM |  |  |  |  | -73.43 | -1.2 | 580 nM | -72.19 | -1.2
O=C(NCc1cccc([S+](=O)([O-])C(F)(F)F)c1)c1csc(N2CCN(c3cccc(C(F)(F)F)c3)CC2)n1 [NCGC01397299-01] | 79.4 nM | -61.99 | -1.2 | -37.47 | -1.2 |  |  | 447 nM |  | 
O=C(NCc1ccc2ccccc2c1)c1csc(N2CCN(c3cccc(C(F)(F)F)c3)CC2)n1 [Compound 17] | 40.7 nM | -93.35 | -1.1 | -92.05 | -1.1 |  |  | 11.9 nM |  | 
Cc1cccc(CNC(=O)c2csc(N3CCN(c4ncccc4C(F)(F)F)CC3)n2)c1 [NCGC01210654-01] | 35100 nM |  |  |  |  | -81.56 | -2.2 | 1020 nM | -95.69 | -1.1
O=C(NCc1ccc(-c2ccsc2)cc1)c1csc(N2CCN(c3cccc(C(F)(F)F)c3)CC2)n1 [NCGC01397331-01] | 3050 nM | -82.49 | -1.3 | -97.11 | -1.1 |  |  | 4 nM |  | 
C[S+](=O)([O-])c1ccc(CNC(=O)c2csc(N3CCN(c4cccc(C(F)(F)F)c4)CC3)n2)cc1 [NCGC01407818-01] | 200 nM | -88.67 | -1.1 | -62.88 | -1.2 |  |  | 447 nM |  | 
Cc1cccc(CNC(=O)c2csc(N3CCN(c4ccc(C(F)(F)F)cn4)CC3)n2)c1 [NCGC01210237-01] | 3130 nM |  |  |  |  | -106.55 | -1.3 | 730 nM | -94.33 | -1.1
Cc1cccc(CNC(=O)c2csc(N3CCN(c4cccc(Br)c4)CC3)n2)c1 [Compound 10] | 200 nM |  |  |  |  | -86.93 | -1.3 | 410 nM | -94.28 | -1.1
COc1cc(N2CCN(c3nc(C(=O)NCc4cccc(C)c4)cs3)CC2)cc(OC)c1OC [NCGC01211386-01] | 9880 nM |  |  |  |  | -70.97 | -1.2 | 3640 nM | -76.22 | -1.2
O=C(NC1CC1)c1ccc(CNC(=O)c2csc(N3CCN(c4cccc(C(F)(F)F)c4)CC3)n2)cc1 [NCGC01397384-01] |  | -16.71 | 4 | -41.09 | -1.2 |  |  | 1580 nM |  | 
Cc1ccc(C)n1-c1ccc(CNC(=O)c2csc(N3CCN(c4cccc(C(F)(F)F)c4)CC3)n2)cc1 [NCGC01408046-01] |  | -23.84 | 4 | -91.30 | -1.1 |  |  | 15800 nM |  | 
O=C(NCc1ccc(Br)c(C(F)(F)F)c1)c1csc(N2CCN(c3cccc(C(F)(F)F)c3)CC2)n1 [NCGC01396480-01] | 1360 nM | -77.80 | -1.4 | -96.06 | -1.1 |  |  | 11.2 nM |  | 
CCOC(=O)Cc1ccc(N2CCN(c3nc(C(=O)NCc4cccc(C)c4)cs3)CC2)cc1 [NCGC01212809-01] | 3930 nM |  |  |  |  | -80.26 | -1.1 | 3240 nM | -99.09 | -1.1
O=C(NCc1cccc(CC(F)(F)F)c1)c1csc(N2CCN(c3cccc(C(F)(F)F)c3)CC2)n1 [NCGC01407930-01] | 860 nM | -116.21 | -2.1 | -103.16 | -1.1 |  |  | 11.2 nM |  | 
O=C(NCc1ccc2c(c1)COC2=O)c1csc(N2CCN(c3cccc(C(F)(F)F)c3)CC2)n1 [NCGC01396481-01] | 342 nM | -73.69 | -1.4 | -98.89 | -1.1 |  |  | 39.8 nM |  | 
